Test results taken from US20200023067A1, “DUAL-ACTION ELAFIBRANOR METFORMIN SALT FOR TREATING OBESITY ASSOCIATED WITH NON-ALCOHOLIC STEATOHEPATITIS (NASH) AND […]” (NASHPHARM, priority 2016, published 2020).
In brackets after ≈: the same amount, converted by molar mass. Several values for one entry are separate records, joined by “and”; a condition that tells them apart may be missing. Identical values can stand only once. Like-named read-outs stand apart in the source and are kept apart here.

Key:
Type in all cases: physicochemical
[1] = Stability after exposure to light and temperature, by UPLC MS; details: powder form or solution; daylight, ambient temperature; compared with the salt
Protocol: The products were exposed to daylight and to ambient temperature.
The reference samples for their part are stored cool (2°-8° C.), protected from light by aluminum paper and under inert gas for the solid product.

[2] = Thermodynamic solubility of elafibranor in aqueous buffers and cosolvents; details: for solubility at 72 h / solubility at 24 h / solubility: 23 °C, thermodynamic from solid; for solubility at 72 h / solubility at 24 h: ambient temperature (22°-24° C.); for solubility at 72 h: read-out: Solubility after 72 hours; for solubility at 24 h: read-out: Solubility after 24 hours
Protocol: The thermodynamic solubility of the basic elafibranor is studied over a period of 24 hours and 72 hours in various aqueous buffers in the presence or not of surfactants. Batch number EM0274L2 is used for this work. After 24 hours and 72 hours of incubation at ambient temperature (22°-24° C.), the solutions are sampled and then filtered over 0.2 μm polycarbonate filters in flasks for LCMS analyses, and diluting once in DMSO before stirring for 2 minutes (vortex or sonification).

[3] = Solubility test on the elafibranor (GFT505) metformin salt; details: aqueous buffer, thermodynamic from solid
Protocol: The solubility kinetics is determined in an aqueous medium (water and pharmacopoeia buffers), at ambient temperature.

[4] = Thermodynamic solubility of elafibranor in aqueous buffers and cosolvents; details: for solubility at 24 h: read-out: Solubility after 24 hours
[5] = Solubility test on the elafibranor (GFT505) metformin salt; details: organic solvent or mixture, thermodynamic from solid, ambient temperature
[6] = aqueous buffer, aqueous buffer, Buffer pH 4.6
[7] = aqueous buffer, aqueous buffer, Buffer pH 7.4
[8] = aqueous buffer, aqueous buffer, Buffer pH 8.5

SMILES: CSc1ccc(C(=O)/C=C/c2cc(C)c(OC(C)(C)C(=O)O)c(C)c2)cc1 [elafibranor, 2-[2,6 dimethyl-4-[3-[4-(methylthio)phenyl]-3-oxo-1(E)-propenyl]phenoxyl]-2-methylpropanoic acid]
- Sensitivity to light (photosensitivity) [1]: more sensitive to light
- solubility at 72 h ([2]; organic solvent or mixture, Propylene glycol): 35100 µM and 13500 µg/mL
- solubility at 24 h [2, 6]: 114 µM and 44 µg/mL
- solubility at 72 h [2, 6]: 110 µM and 42 µg/mL
- solubility at 24 h [2, 7]: 504 µM and 194 µg/mL
- solubility at 72 h [2, 7]: 609 µM and 234 µg/mL
- solubility at 24 h [2, 8]: 4420 µM and 1700 µg/mL
- solubility at 72 h [2, 8]: 4270 µM and 1640 µg/mL
- solubility ([2]; aqueous buffer, pH 4.6, aqueous buffer): 114 µM (≈ 43.8 µg/mL)
- solubility ([2]; aqueous buffer, pH 8.5, aqueous buffer): 4420 µM (≈ 1700 µg/mL)
- Solubility in an aqueous medium ([2]; aqueous medium): low
- solubility ([3]; Buffer pH 4.6, ambient temperature): 114 µM and 44 µg/mL
- solubility ([3]; Buffer pH 7.4, ambient temperature): 504 µM and 194 µg/mL
- solubility ([3]; Buffer pH 8.5, ambient temperature): 4420 µM and 1700 µg/mL
- solubility at 24 h ([4]; 23 °C, organic solvent or mixture, thermodynamic from solid, Polyethylene glycol 400, ambient temperature (22°-24° C.)): 39000 µM and 15000 µg/mL
- solubility at 72 h ([4]; 23 °C, organic solvent or mixture, thermodynamic from solid, Polyethylene glycol 400, ambient temperature (22°-24° C.), read-out: Solubility after 72 hours): 41000 µM and 15800 µg/mL
- solubility at 24 h ([4]; 23 °C, organic solvent or mixture, thermodynamic from solid, Propylene glycol, ambient temperature (22°-24° C.)): 33500 µM and 12900 µg/mL
- Effect of cosolvent on solubility ([4]; addition of cosolvent such as propylene glycol or PEG 400): significantly improves the solubility
- solubility ([5]; Polyethylene glycol 400): 39000 µM and 15000 µg/mL
- solubility ([5]; Propylene glycol): 33500 µM and 12900 µg/mL
